Test system: neonatal rat ventricular myocytes (NRVMs)
Assay: Myocyte proliferation assay (EdU) in neonatal rat ventricular myocytes
Assay type: cell-based
Settings: Rattus norvegicus, Ventricular myocyte, growth relative to blank myocyte growth without compound added; for activation at 1 µM: 1 uM compound; for activation at 3 µM: 3 uM compound; for activation at 10 µM: 10 uM compound
Description: 1. Isolation of and Culture Neonatal Rat Ventricular Myocytes (NRVMs)
Ventricles from neonatal rats were separated from the atria, cut into small pieces (about 2×2 mm^2) and then dissociated in Ca^2+-free HBSS containing 0.125 mg ml-1 trypsin (Gibco), 10 μg ml-1 DNase II (Sigma) and 0.1 mg ml-1 collagenase type IV (Sigma). The digestion was carried out under constant stirring at 37° C. for 5 min. The supernatant was collected with FBS (Gibco) after each digestion period. After digestion, the collected supernatant was centrifuged at 1000 g for 10 min at room temperature, and then cell pellets were resuspended in DMEM (Gibco) supplemented with 10% FBS and with 100 uM 5-bromo-2′-deoxyuridine (Sigma). The resuspended cells were passed through a cell strainer ([…], BD Falcon) and seeded onto 100-mm plastic dishes for 2 h at 37° C. in a 5% CO2 to remove fibroblasts, the supernatant was then collected and plated onto 1% gelatin (Sigma)-coated dishes. 24 h after the seeding, the medium was changed to DMEM (Gibco) containing 2% FBS (Gibco), 1% insulin-transferrin-selenium (ITS; Gibco), 1% Penicillin-Streptomycin (Gibco). After 24 hours of low serum culture, remove the medium with DMEM (Gibco) containing 6% FBS (Gibco), 1% insulin-transferrin-selenium (ITS; Gibco), 1% Penicillin-Streptomycin (Gibco), different concentrations of compounds (the compounds were pre-diluted in the medium and the drug concentration was 10 uM, 3 uM, 1 uM, fully mixed). After 36 h add Edu substrate (Invitrogen) according to the manufacturer's guidelines, and then after 12 h cell can be used.
2.1. Immobilization: Remove the medium and fix the cells with […] in 200 ul (whichever is covered) for 15 min and wash the cells twice with 500 ul of PBS for 5 min each time.
2.2. Broken membrane: Add 200 ul of 0.3% Triton-X 100 (diluted in PBS) to each well, incubate for 10-15 min at room temperature (the time should not be too long), and wash the cells twice with 500 ul of PBS for 5 min each time.
2.3. Blocking: Add 200 ul of 10% normal goat serum (diluted with 0.1% PBST) to each well, incubate for 1 h at room temperature, and wash twice with 500 ul of 0.1% PBST for 5 min each time.
2.4. Primary antibody: dilute the primary antibody (abcam, ab8295) to blocking solution at a ratio of 1:200, add 100 ul per well, incubate for 1 h at room temperature (may be slightly longer than 2-3 h), wash the cells twice with 500 ul 0.1% PBST for 5 min each time.
2.5. Secondary antibody: Dilute the fluorescently labeled secondary antibody (abcam, ab150117) into blocking solution at a ratio of 1:200, add 100 ul per well, incubate for 1 h at room temperature (the time should not be too long), wash the cells twice with 0.1% PBST for 5 min each time, pay attention to the whole process. Protected from light.
2.6. Edu staining (Invitrogen C10338)
2.6.1 Prepare Click-iT® reaction cocktail according to Table 3. It was important to add the ingredients in the order listed in the table; otherwise, the reaction would not proceed optimally. Use the Click-iT® reaction cocktail within 15 minutes of preparation.
2.6.2 Add 0.1 mL of Click-iT® reaction cocktail to each well containing a coverslip. Rock the plate briefly to ensure that the reaction cocktail is distributed evenly over the coverslip.
2.6.3 Incubate the plate for 30 minutes at room temperature, protected from light.
2.6.4 Remove the reaction cocktail, then wash the cells twice with 0.1% PBST for 5 min each time.
2.7. DAPI staining: DAPI stain was diluted to PBS at a ratio of 1:1000, 100 ul per well, incubated for 30 min at room temperature, and the cells were washed twice with PBS for 5 min each.
We used Molecular Devices' Image Xpress Micro Confocal for high-throughput photo and data analysis.

## NC1=N/C(=C\c2ccc3c(c2)OC(F)(F)O3)C(=O)N1 [TJU-B049, (4Z)-2-amino-4-[(2,2-difluoro-2H-1,3-benzodioxol-5-yl)methylidene]-4,5-dihydro-1H-imidazol-5-one]
  activation at 1 µM: 10 to 50%
  activation at 3 µM: < 10%
  activation at 10 µM: 10 to 50%

## CN1C(=O)/C(=C/c2ccc(F)cc2)N=C1N [TJU-B050, (4Z)-2-amino-4-[(4-fluorophenyl)methylidene]-1-methyl-4,5-dihydro-1H-imidazol-5-one]
  activation at 1 µM: < 10%
  activation at 3 µM: < 10%
  activation at 10 µM: 10 to 50%

## COc1cc(/C=C2\N=C(Nc3ccccc3)NC2=O)cc2c1OCO2 [TJU-B051, (4Z)-4-[(7-methoxy-2H-1,3-benzodioxol-5-yl)methylidene]-2-(phenylamino)-4,5-dihydro-1H-imidazol-5-one]
  activation at 1 µM: < 10%
  activation at 3 µM: < 10%
  activation at 10 µM: 10 to 50%

## CN1C(=O)/C(=C/c2ccc3c(c2)OCO3)N=C1NCC1CC1 [TJU-B052, (4Z)-4-[(2H-1,3-benzodioxol-5-yl)methylidene]-2-[(cyclopropylmethyl)amino]-1-methyl-4,5-dihydro-1H-imidazol-5-one]
  activation at 1 µM: 10 to 50%
  activation at 3 µM: 10 to 50%
  activation at 10 µM: 10 to 50%

## CN1C(=O)/C(=C/c2cccc(Cl)c2)N=C1N [TJU-B056, (4Z)-2-amino-4-[(3-chlorophenyl)methylidene]-1-methyl-4,5-dihydro-1H-imidazol-5-one]
  activation at 1 µM: < 10%
  activation at 3 µM: < 10%
  activation at 10 µM: < 10%

## CN1C(=O)/C(=C/c2ccc3c(c2)OCO3)N=C1N [TJU-B057, (4Z)-2-amino-4-[(2H-1,3-benzodioxol-5-yl)methylidene]-1-methyl-4,5-dihydro-1H-imidazol-5-one]
  activation at 1 µM: 10 to 50%
  activation at 3 µM: < 10%
  activation at 10 µM: < 10%

## N#Cc1ccc(NC2=N/C(=C\c3ccc4c(c3)OCO4)C(=O)N2)cc1 [TJU-B058, 4-{[(4Z)-4-[(2H-1,3-benzodioxol-5-yl)methylidene]-5-oxo-4,5-dihydro-1H-imidazol-2-yl]amino} benzonitrile]
  activation at 1 µM: 10 to 50%
  activation at 3 µM: < 10%
  activation at 10 µM: < 10%

## O=C1NC(C2CC2)=N/C1=C\c1ccc2c(c1)OCO2 [TJU-B059, (4Z)-4-[(2H-1,3-benzodioxol-5-yl)methylidene]-2-cyclopropyl-4,5-dihydro-1H-imidazol-5-one]
  activation at 1 µM: < 10%
  activation at 3 µM: < 10%
  activation at 10 µM: < 10%

## O=C1NC(Nc2ccc(Cl)cc2)=N/C1=C\c1ccc2c(c1)OCO2 [TJU-B060, (4Z)-4-[(2H-1,3-benzodioxol-5-yl)methylidene]-2-[(4-chlorophenyl)amino]-4,5-dihydro-1H-imidazol-5-one]
  activation at 1 µM: < 10%
  activation at 3 µM: < 10%
  activation at 10 µM: < 10%

## O=C1NC(c2ccccc2)=N/C1=C\c1ccc2c(c1)OC(F)(F)O2 [TJU-B063, (4Z)-4-[(2,2-difluoro-2H-1,3-benzodioxol-5-yl)methylidene]-2-phenyl-4,5-dihydro-1H-imidazol-5-one]
  activation at 1 µM: < 10%
  activation at 3 µM: > 50%
  activation at 10 µM: < 10%

## NC1=N/C(=C\c2cc3c(cc2Cl)OCO3)C(=O)N1 [TJU-B064, (4Z)-2-amino-4-[(6-chloro-2H-1,3-benzodioxol-5-yl)methylidene]-4,5-dihydro-1H-imidazol-5-one]
  activation at 1 µM: < 10%
  activation at 3 µM: < 10%
  activation at 10 µM: < 10%

## COc1cc(/C=C2\N=C(N)NC2=O)cc2c1OCO2 [TJU-B065, (4Z)-2-amino-4-[(7-methoxy-2H-1,3-benzodioxol-5-yl)methylidene]-4,5-dihydro-1H-imidazol-5-one]
  activation at 1 µM: < 10%
  activation at 3 µM: < 10%
  activation at 10 µM: < 10%

## O=C1NC(NCCN2CCOCC2)=N/C1=C\c1ccc2c(c1)OC(F)(F)O2 [TJU-B066, (4Z)-4-[(2,2-difluoro-2H-1,3-benzodioxol-5-yl)methylidene]-2-{[2-(morpholin-4-yl)ethyl]amino}-4,5-dihydro-1H-imidazol-5-one]
  activation at 1 µM: 10 to 50%
  activation at 3 µM: < 10%
  activation at 10 µM: < 10%

## CN1C(=O)/C(=C/c2ccccc2F)N=C1N [TJU-B067, (4Z)-2-amino-4-[(2-fluorophenyl)methylidene]-1-methyl-4,5-dihydro-1H-imidazol-5-one]
  activation at 1 µM: < 10%
  activation at 3 µM: < 10%
  activation at 10 µM: < 10%

## COc1ccc(/C=C2\N=C(N)N(C)C2=O)cc1OC [TJU-B070, (4Z)-2-amino-4-[(3,4-dimethoxyphenyl)methylidene]-1-methyl-4,5-dihydro-1H-imidazol-5-one]
  activation at 1 µM: < 10%
  activation at 3 µM: < 10%
  activation at 10 µM: < 10%

## COc1ccc(/C=C2\N=C(Nc3ccccc3)NC2=O)cc1OC [TJU-B085, (4Z)-4-[(3,4-dimethoxyphenyl)methylidene]-2-(phenylamino)-4,5-dihydro-1H-imidazol-5-one]
  activation at 1 µM: < 10%
  activation at 3 µM: < 10%
  activation at 10 µM: < 10%

## CN1C(=O)/C(=C/c2ccc3c(c2)OCO3)N=C1Nc1ccc2c(c1)OCO2 [TJU-B088, (4Z)-2-[(2H-1,3-benzodioxol-5-yl)amino]-4-[(2H-1,3-benzodioxol-5-yl)methylidene]-1-methyl-4,5-dihydro-1H-imidazol-5-one]
  activation at 1 µM: 10 to 50%
  activation at 3 µM: < 10%
  activation at 10 µM: < 10%

## O=C1NC(Nc2ccccn2)=N/C1=C\c1ccc2c(c1)OCO2 [TJU-B097, (4Z)-4-[(2H-1,3-benzodioxol-5-yl)methylidene]-2-[(pyridin-2-yl)amino]-4,5-dihydro-1H-imidazol-5-one]
  activation at 1 µM: < 10%
  activation at 3 µM: < 10%
  activation at 10 µM: < 10%

## Cc1ccc(NC2=N/C(=C\c3ccc4c(c3)OCO4)C(=O)N2)cc1 [TJU-B110, (4Z)-4-[(2H-1,3-benzodioxol-5-yl)methylidene]-2-[(4-methylphenyl)amino]-4,5-dihydro-1H-imidazol-5-one]
  activation at 1 µM: 10 to 50%
  activation at 3 µM: < 10%
  activation at 10 µM: < 10%

## O=C1NC(NC2CCCCC2)=N/C1=C\c1ccc2c(c1)OCO2 [TJU-B253, (4Z)-4-[(2H-1,3-benzodioxol-5-yl)methylidene]-2-(cyclohexylamino)-4,5-dihydro-1H-imidazol-5-one]
  activation at 1 µM: < 10%
  activation at 3 µM: < 10%
  activation at 10 µM: < 10%

## COc1ccccc1NC1=N/C(=C\c2ccc3c(c2)OCO3)C(=O)N1 [TJU-B254, (4Z)-4-[(2H-1,3-benzodioxol-5-yl)methylidene]-2-[(2-methoxyphenyl)amino]-4,5-dihydro-1H-imidazol-5-one]
  activation at 1 µM: < 10%
  activation at 3 µM: < 10%
  activation at 10 µM: < 10%

Source: patent US12594261B2, “Use of heterocyclic derivatives with cardiomyocyte proliferation activity for treatment of heart diseases” (SHANGHAI EAST HOSPITAL (EAST HOSPITAL, TONGJI UNIVERSITY …, priority 2019, dated 2026)
